Patent US9289467B2, “Compositions and methods for treating bone conditions” (Case Western Reserve University, priority 2011, dated 2016)
“Also recorded” adds a separate entry of the source.

B1: IL-6: exogenous IL-6 (R&D Systems), 20 ng/mL supplemented into BM cell cultures (protein, UniProt P08505 25-211, looked up)
Interleukin-6: FPTSQVRRGDFTEDTTPNRPVYTTSQVGGLITHVLWEIVEMRKELCNGNSDCMNNDDALAENNLKLPEIQRNDGCYQTGYNQEICLLKISSGLLEYHSYLEYMKNNLKDNKKDKARVLQRDTETLIHIFNQEVKDLHKIVLPTPISNALLTDKLESQKEWLRTKTIQFILKSLEEFLKVTLRSTRQT
B2: C5a: purified C5a (Cell Sciences), complement activation product, 50 ng/mL (protein, UniProt P06684 679-755, looked up)
C5a anaphylatoxin: NLHLLRQKIEEQAAKYKHSVPKKCCYDGARVNFYETCEERVARVTIGPLCIRAFNECCTIANKIRKESPHKPVQLGR
modifications: C5a anaphylatoxin

What was measured:
Type in all cases: cell-based
WT BM cells = assay: OC differentiation of WT mouse BM cells stimulated with 1.25(OH)2 vitamin D3, TRAP staining; conditions: for TRAP-positive multinuclear cells / TRAP-positive mononuclear cells / numbers of resultant OC with exogenous C3a/C5a, result in words: WT BM cells; for TRAP-positive multinuclear cells / TRAP-positive mononuclear cells: 1×10^−8M 1.25(OH)2 vitamin D3, 50 μM of each antagonist, day 12; for TRAP-positive multinuclear cells: placebo 42±9; for TRAP-positive mononuclear cells: placebo 217±25; for OC generation / differentiation, result in words: WT mouse BM cells, antagonist during 1.25(OH)2 vitamin D3 stimulation, vs placebo; for numbers of resultant OC with exogenous C3a/C5a, result in words: 50 ng/mL C3a or C5a or both added daily
Experimental: (§1) Human BM cells from healthy donors were obtained from the Hematopoietic Stem Cell Core Facility of Case Western Reserve University. Murine BM cells were isolated from 8- to 12-week-old female mouse femurs and tibias, washed, and collected in 15-mL tubes in α-modified Eagle medium (MEM) containing 10% fetal bovine serum (FBS) that was heat-inactivated to eliminate complement activity. For OC differentiation, 2×10^6 BM cells were cultured in complete α-MEM medium in wells of a 24-well plate together with 1×10^−8M 1.25(OH)2 vitamin D3 (Cayman Chemical) as described before. Cultures were fed every 3 days with fresh media. For IL-6 or C5aR antagonist (C5aRA)/C3aR antagonist (C3aRA) supplementation experiments, 20 ng/mL IL-6 (R&D Systems) or 50 μM of each antagonist or both (C5aRA: JPE-1375; custom synthesized by Anaspec; C3aRA:SB290157; purchased from BMD Chemicals) were included in the medium. For C3a and/or C5a supplementation experiments, 50 ng/mL purified C3a (BD Biosciences) or C5a (Cell Sciences) or both were added daily into WT and C3^−/− BM-cell cultures. To neutralize IL-6 in samples treated with C3a/C5a, 10 ng/mL rat anti-IL-6 mAb (Clone 6B4 IGH 54; eBioscience) were added every 2 days. At day 12, differentiated OCs were identified by conventional tartrate-resistant acid phosphatase (TRAP) staining using a kit (Sigma-Aldrich) and following the protocol provided by the manufacturer. Total numbers of TRAP-positive cells in each well were counted under a microscope, and cells containing 3 or more nuclei were categorized as multinucleated.

human BM cells = assay: OC differentiation of human BM cells stimulated with 1.25(OH)2 vitamin D3, TRAP staining; conditions: 1.25(OH)2 vitamin D3, with antagonists vs placebo
Experimental: as §1
To determine whether the above-observed results would apply to humans, we subjected normal human BM cells to OC differentiation conditions with and without the C3aR/C5aR antagonists, then analyzed the conditioned media for the presence of factor B, factor D, and C5, and quantified the resultant TRAP^+ cells.

C3^−/− BM cells = assay: OC differentiation of C3^−/− mouse BM cells stimulated with 1.25(OH)2 vitamin D3, TRAP staining; conditions: for numbers of resultant OC with exogenous C3a/C5a, result in words: 50 ng/mL C3a or C5a or both added daily
Experimental: as §1

Row | Molecule | TRAP-positive multinuclear cells (WT BM cells) | TRAP-positive mononuclear cells (WT BM cells) | OC generation / differentiation, result in words (WT BM cells) | OC differentiation (TRAP^+ cells), result in words (human BM cells) | numbers of resultant OC with exogenous C3a/C5a, result in words (WT BM cells) | numbers of resultant OC with exogenous C3a/C5a, result in words (C3^−/− BM cells; C3^−/− BM cells) | also measured
1 | NC(N)=NCCC[C@H](NC(=O)COCC(c1ccccc1)c1ccccc1)C(=O)O [C3aRA, SB290157] | 29±7 cells | 156±23 cells | significantly inhibited OC generation | significant decrease in both mononuclear and multi-nuclear TRAP^+ cells | – | – | –
2 | C3a: purified C3a (BD Biosciences), complement activation product, 50 ng/mL | – | – | – | – | increased the numbers of resultant OC | increased the numbers of resultant OC | –
3 | JPE-1375 [C5aRA] | 34±8 cells | 176±29 cells | did not reach a statistical significance | decrease in both cell types, but only the mono-nuclear cells were at the level of statistical significance | – | – | OC generation / differentiation, result in words (WT BM cells; listed as JPE-1375): inhibits mouse and human OC differentiation in vitro; OC differentiation (TRAP^+ cells), result in words (human BM cells; listed as JPE-1375): inhibits mouse and human OC differentiation in vitro
4 | B1 | – | – | – | – | – | – | OC differentiation with IL-6 supplementation, result in words (C3^−/− BM cells; C3^−/− BM cell cultures supplemented with IL-6): rescued the C3^−/− phenotype; also recorded: restored their OC differentiation capabilities; TRAP-positive cells (multinucleated) (C3^−/− BM cells; C3^−/− BM cells, 20 ng/mL IL-6 daily, 12 days, without IL-6 31±4): 52±9; TRAP-positive cells (mononuclear) (C3^−/− BM cells; C3^−/− BM cells, 20 ng/mL IL-6 daily, 12 days, without IL-6 108±17): 249±39; Trap^+ Multi-Nucl. Cells/Well (C3^−/− BM cells; Table 2, C3^−/− BM cells + IL-6, C3^−/− without IL-6 31 ± 4): 52 ± 9 Cells/Well; Trap^+ Mono-Nucl. Cells/Well (C3^−/− BM cells; Table 2, C3^−/− BM cells + IL-6, C3^−/− without IL-6 108 ± 17): 249 ± 39 Cells/Well
5 | B2 | – | – | – | – | did not appear to have a significant effect | did not appear to have a significant effect | –
